Measured values published in patent US6548495B2, “Dihydro-benzo [B] [1,4] diazepin-2-one derivatives” (Hoffmann-La Roche Inc., priority 2002, dated 2003).

Experiments:
[1] = biological target: T1, recombinant rat mGluR2 expressed in CHO cells (Rattus norvegicus, UniProt P31421); test: [3H]-LY354740 binding on mGlu2 transfected CHO cell membranes (displacement binding assay); conditions: displacement of 10 nM [3H]-LY354740, membranes of CHO cells expressing rat mGlu2, room temperature, 1 hour; Ki calculated from IC50 with the Cheng and Prusoff equation
T1 construct: expressed in transfected cells; host or cells: CHO cells, stably transfected with pcD1mGR2 (pcDNA I-amp), G-418 selected; membranes used
Description: In Table I below some specific Ki values of preferred compounds of the invention are presented. These values were obtained by indirect measurement of the affinity of the compounds for the recombinant rat mGluR2 expressed in CHO cells using a displacement binding assay with 3H-LY354740.
[^3H]-LY354740 Binding on mGlu2 Transfected CHO Cell Membranes
Transfection and Cell Culture
cDNA encoding the rat mGlu2 receptor protein in pBluescript II was obtained from Prof. S. Nakanishi (Kyoto, Japan), and subcloned into the eukaryotic expression vector pcDNA I-amp from Invitrogen (NV Leek, The Netherlands). This vector construct (pcD1mGR2) was co-transfected with a psvNeo plasmid encoding the gene for neomycin resistance, into CHO cells by a modified calcium phosphate method described by Chen & Okayama (1988). The cells were maintained in Dulbecco's Modified Eagle medium with reduced L-glutamine (2 mM final concentration) and 10% dialysed foetal calf serum from Gibco BRL (Basel, Switzerland). Selection was made in the presence of G-418 (1000 ug/mL final). Clones were identified by reverse transcription of 5 μg total RNA, followed by PCR using mGlu2 receptor specific primers 5′-[…]-3′ and 5′-[…]-3′ in 60 mM Tris HCl (pH 10), 15 mM (NH4)2SO4, 2 mM MgCl2, 25 units/mL Taq Polymerase with 30 cycles annealing at 60° C. for 1 min., extention at 72° C. for 30 s, and 1 min. 95° C. denaturation.
Cells, cultured as above, were harvested and washed three times with cold PBS and frozen at −80° C. The pellet was resuspended in cold 20 mM HEPES-NaOH buffer containing 10 mM EDTA (pH 7.4), and homogenised with a polytron (Kinematica, AG, Littau, Switzerland) for 10 s at 10000 rpm. After centrifugation for 30 min. at 4° C., the pellet was washed once with the same buffer, and once with cold 20 mM HEPES-NaOH buffer containing 0.1 mM EDTA, (pH 7.4). Protein content was measured using the Pierce method (Socochim, Lausanne, Switzerland) using bovine serum albumin as standard.
After thawing, the membranes were resuspended in cold 50 mM Tris-HCl buffer containing 2 mM MgCl2 and 2 mM CaCl2, (pH 7) (binding buffer). The final concentration of the membranes in the assays was 25 μg protein/mL. Inhibition experiments were performed with membranes incubated with 10 nM [^3H]-LY354740 at room temperature, for 1 hour, in presence of various concentrations of the compound to be tested. Following the incubations, membranes were filtered onto Whatmann GF/C glass fiber filters and washed 5 times with cold binding buffer. Non specific binding was measured in the presence of 10 μM DCG IV. After transfer of the filters into plastic vials containing 10 mL of Ultima-gold scintillation fluid (Packard, Züirich, Switzerland), the radioactivity was measured by liquid scintillation in a Tri-Carb 2500 TR counter (Packard, Züirich, Switzerland).
The inhibition curves were fitted with a four parameter logistic equation giving IC50 values, and Hill coefficients and the Ki values were calculated using the Cheng and Prusoff equation (Cheng, Y. and Prusoff, W. H., Biochem. Pharmacol. 1973, 22, 3099-3108). A small Ki value expresses high affinity of the compound towards the receptor.

T1 sequence (P31421 19-872): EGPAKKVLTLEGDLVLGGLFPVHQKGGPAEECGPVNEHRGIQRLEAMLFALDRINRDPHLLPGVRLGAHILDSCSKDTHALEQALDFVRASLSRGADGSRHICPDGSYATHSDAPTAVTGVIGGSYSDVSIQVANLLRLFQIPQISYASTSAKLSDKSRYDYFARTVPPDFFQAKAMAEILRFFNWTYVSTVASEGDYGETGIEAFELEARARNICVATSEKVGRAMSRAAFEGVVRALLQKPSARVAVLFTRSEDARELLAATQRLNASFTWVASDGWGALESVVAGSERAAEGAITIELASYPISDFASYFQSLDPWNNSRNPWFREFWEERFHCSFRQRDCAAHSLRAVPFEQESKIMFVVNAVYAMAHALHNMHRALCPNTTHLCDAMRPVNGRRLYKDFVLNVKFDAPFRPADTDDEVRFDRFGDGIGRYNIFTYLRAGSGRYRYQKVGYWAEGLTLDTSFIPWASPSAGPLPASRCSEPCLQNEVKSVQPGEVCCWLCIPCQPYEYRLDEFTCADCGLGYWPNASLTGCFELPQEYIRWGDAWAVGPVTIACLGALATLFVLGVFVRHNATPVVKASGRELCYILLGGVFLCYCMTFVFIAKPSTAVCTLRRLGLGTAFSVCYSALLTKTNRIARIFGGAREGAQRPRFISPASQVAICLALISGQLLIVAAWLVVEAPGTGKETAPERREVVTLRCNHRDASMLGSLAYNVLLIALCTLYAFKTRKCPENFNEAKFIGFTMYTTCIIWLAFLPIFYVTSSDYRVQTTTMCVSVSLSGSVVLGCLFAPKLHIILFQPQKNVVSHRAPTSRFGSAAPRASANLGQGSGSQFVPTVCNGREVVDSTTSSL

Compound	Ki [1] [nM]	melting point
N#Cc1cccc(C2=Nc3cc(I)c(-n4cccc4)cc3NC(=O)C2)c1 [Example 9, 3-(8-Iodo-4-oxo-7-pyrrol-1-yl-4,5-dihydro-3H-benzo[b][1,4]diazepin-2-yl)-benzonitrile]	75	215 °C
Cc1cc2c(cc1C(F)(F)F)NC(=O)CC(c1ccnc(C#N)c1)=N2 [Example 58, 4-(8-Methyl-4-oxo-7-trifluoromethyl-4,5-dihydro-3H-benzo[b][1,4]diazepin-2-yl)-pyridine-2-carbonitrile]	8.5	235 °C
O=C1CC(c2cccc(-c3nc(C(=O)NCCO)co3)c2)=Nc2ccc(-n3cccc3)cc2N1 [Example 34, 2-[3-(4-oxo-7-Pyrrol-1-yl-4,5-dihydro-3H-benzo[b][1,4]diazepin-2-yl)-phenyl]-oxazole-4-carboxylic Acid (2-Hydroxy-ethyl)-amide]	91	242 to 244 °C
CCOc1cc2c(cc1C(F)(F)F)NC(=O)CC(c1cccc(-n3nncc3CO)c1)=N2 [Example 52, 7-Ethoxy-4-[3-(5-hydroxymethyl-[1,2,3]triazol-1-yl)-phenyl]-8-trifluoromethyl-1,3-dihydro-benzo[b][1,4]diazepin-2-one]	83.5	214 °C
O=C1CC(c2cccc(-n3nncc3CNC3CC3)c2)=Nc2cc(Cl)c(C(F)(F)F)cc2N1 [Example 67, 7-Chloro-4-[3-(5-cyclopropylaminomethyl-[1,2,3]triazol-1-yl)-phenyl]-8-trifluoromethyl-1,3-dihydro-benzo[b][1,4]diazepin-2-one]	15.5	206 °C
COc1cc2c(cc1-n1cccc1C(C)(C)C)NC(=O)CC(c1cccc(C#N)c1)=N2 [Example 18, 3-[7-(2-tert.-Butyl-pyrrol-1-yl)-8-methoxy-4-oxo-4,5-dihydro-3H-benzo[b][1,4]diazepin-2-yl]-benzonitrile]	80	> 250 °C
O=C1CC(c2cccc(-n3nncc3CO)c2)=Nc2cc(N3CCOCC3)c(C(F)(F)F)cc2N1 [Example 1, 4-[3-(5-Hydroxymethyl-[1,2,3]triazol-1-yl)-phenyl]-7-morpholin-4-yl-8-trifluoromethyl-1,3-dihydro-benzo[b][1,4]diazepin-2-one]	74	200 °C
CCOC(=O)c1ncoc1-c1cccc(C2=Nc3ccc(-n4cccc4)cc3NC(=O)C2)c1 [Example 23, 5-[3-(4-oxo-7-Pyrrol-1-yl-4,5-dihydro-3H-benzo[b][1,4]diazepin-2-yl)-phenyl]-oxazole-4-carboxylic Acid Ethyl Ester]	29	222 to 224 °C
N#Cc1cc(C2=Nc3cc(N4CCOCC4)c(C(F)(F)F)cc3NC(=O)C2)ccn1 [Example 2, 4-(8-Morpholin-4-yl-4-oxo-7-trifluoromethyl-4,5-dihydro-3H-benzo[b][1,4]diazepin-2-yl)-pyridine-2-carbonitrile]	20	220 °C
N#Cc1cc(C2=Nc3cc(N4CCSCC4)c(C(F)(F)F)cc3NC(=O)C2)ccn1 [Example 42, 4-(4-oxo-8-Thiomorpholin-4-yl-7-trifluoromethyl-4,5-dihydro-3H-benzo[b][1,4]diazepin-2-yl)-pyridine-2-carbonitrile]	0.9	195 to 199 °C
O=C1CC(c2cccc(-c3ncco3)c2)=Nc2ccc(-n3cccc3)cc2N1 [Example 22, 4-(3-Oxazol-2-yl-phenyl)-8-pyrrol-1-yl-1,3-dihydro-benzo[b][1,4]diazepin-2-one]	23	251 to 253 °C
Cc1cc(-c2cccc(C3=Nc4cc(N5CCOCC5)c(C#N)cc4NC(=O)C3)c2)on1 [Example 61, 2-[3-(3-Methyl-isoxazol-5-yl)-phenyl]-8-morpholin-4-yl-4-oxo-4,5-dihydro-3H-benzo[b][1,4]diazepine-7-carbonitrile]	–	252 °C
COCCOc1cc2c(cc1-n1cccc1)NC(=O)CC(c1cccc(C#N)c1)=N2 [Example 10, 3-[8-(2-Methoxy-ethoxy)-4-oxo-7-pyrrol-1-yl-4,5-dihydro-3H-benzo[b][1,4]diazepin-2-yl]-benzonitrile]	–	189 to 195 °C
N#Cc1cccc(C2=Nc3ccc(-n4ccc(-c5ccccc5)c4)cc3NC(=O)C2)c1 [Example 12, 3-[4-oxo-7-(3-Phenyl-pyrrol-1-yl)-4,5-dihydro-3H-benzo[b][1,4]diazepin-2-yl]-benzonitrile]	75	–
Cc1cc2c(cc1C(F)(F)F)NC(=O)CC(c1cccc(-n3nncc3CO)c1)=N2 [Example 68, 4-[3-(5-Hydroxymethyl-[1,2,3]triazol-1-yl)-phenyl]-7-methyl-8-trifluoromethyl-1,3-dihydro-benzo[b][1,4]diazepin-2-one]	–	215 °C
COc1cc2c(cc1-n1cccc1)NC(=O)CC(c1cccc(C#N)c1)=N2 [Example 17, 3-(8-Methoxy-4-oxo-7-pyrrol-1-yl-4,5-dihydro-3H-benzo[b][1,4]diazepin-2-yl)-benzonitrile]	44	–
CN(C)Cc1cnnn1-c1cccc(C2=Nc3cc(N4CCOCC4)c(C(F)(F)F)cc3NC(=O)C2)c1 [Example 40, 4-[3-(5-Dimethylaminomethyl-[1,2,3]triazol-1-yl)-phenyl]-7-morpholin-4-yl-8-trifluoromethyl-1,3-dihydro-benzo[b][1,4]diazepin-2-one]	–	180 °C
Cc1cc2c(cc1C(F)(F)F)NC(=O)CC(c1cccc(-n3ccnn3)c1)=N2 [Example 76, 7-Methyl-4-(3-[1,2,3]triazol-1-yl-phenyl)-8-trifluoromethyl-1,3-dihydro-benzo[b][1,4]diazepin-2-one]	–	237 °C
N#Cc1cccc(C2=Nc3cc(N4CCOCC4)c(C#N)cc3NC(=O)C2)c1 [Example 59, 2-(3-Cyano-phenyl)-8-morpholin-4-yl-4-oxo-4,5-dihydro-3H-benzo[b][1,4]diazepine-7-carbonitrile]	–	259 °C
Cc1cc(-c2cccc(C3=Nc4cc(Cl)c(C(F)(F)F)cc4NC(=O)C3)c2)on1 [Example 65, 7-Chloro-4-[3-(3-methyl-isoxazol-5-yl)-phenyl]-8-trifluoromethyl-1,3-dihydro-benzo[b][1,4]diazepin-2-one]	–	252 °C
N#Cc1cc2c(cc1N1CCOCC1)N=C(c1cccc(-n3nncc3CO)c1)CC(=O)N2 [Example 60, 2-[3-(5-Hydroxymethyl-[1,2,3]triazol-1-yl)-phenyl]-8-morpholin-4-yl-4-oxo-4,5-dihydro-3H-benzo[b][1,4]diazepine-7-carbonitrile]	–	180 °C
O=C1CC(c2cccc(I)c2)=Nc2ccc(-n3cccc3)cc2N1 [Example 7, 4-(3-Iodo-phenyl)-8-pyrrol-1-yl-1,3-dihydro-benzo[b][1,4]diazepin-2-one]	–	215 to 217 °C (dec.)
NC(=O)c1nc(-c2cccc(C3=Nc4ccc(-n5cccc5)cc4NC(=O)C3)c2)cs1 [Example 30, 4-[3-(4-oxo-7-Pyrrol-1-yl-4,5-dihydro-3H-benzo[b][1,4]diazepin-2-yl)-phenyl]-thiazole-2-carboxylic Acid Amide]	–	267 to 269 °C
O=C1CC(c2cccc(-n3ccnc3)c2)=Nc2cc(Cl)c(C(F)(F)F)cc2N1 [Example 72, 7-Chloro-4-(3-imidazol-1-yl-phenyl)-8-trifluoromethyl-1,3-dihydro-benzo[b][1,4]diazepin-2-one]	–	225 °C
N#Cc1cccc(C2=Nc3ccc(-n4cc(C#N)c(-c5ccccc5Cl)c4)cc3NC(=O)C2)c1 [Example 5, 4-(2-Chloro-phenyl)-1-[2-(3-cyano-phenyl)-4-oxo-4,5-dihydro-3H-benzo[b][1,4]diazepin-7-yl]-1H-pyrrole-3-carbonitrile]	–	252 °C (dec.)
